# Assay results as given in US10294202B2, “Pyrrolidinones as herbicides” (FMC Corporation, priority 2013, dated 2019).
# Assays:
# Test in all cases: Test E preemergence herbicide test
# Design in all cases: key: 0 = no effect, 100 = complete control
# [1] = system: waterhemp; assay type: in vivo, Amaranthus rudis
# Source text: (§1) Seeds of plant species selected from corn (Zea mays), soybean (Glycine max), velvetleaf (Abutilon theophrasti), lambsquarters (Chenopodium album), wild poinsettia (Euphorbia heterophylla), pigweed, palmer (palmer pigweed, Amaranthus palmeri), waterhemp (common waterhemp, Amaranthus rudis), surinam grass (Brachiaria decumbens), crabgrass, large (large crabgrass, Digitaria sanguinalis), crabgrass, Brazil (Brazilian crabgrass, Digitaria horizontalis), panicum, fall (fall panicum, Panicum dichotomiflorum), foxtail, giant (giant foxtail, Setaria faberii), foxtail, green (green foxtail, Setaria viridis), goosegrass (Eleusine indica), johnsongrass (Sorghum halepense), ragweed (common ragweed, Ambrosia elatior), barnyardgrass (Echinochloa crus-galli), sandbur (southern sandbur, Cenchrus echinatus), arrowleaf […] rhombifolia), ryegrass, Italian (Italian ryegrass, Lolium multiflorum), dayflower, VA (Virginia dayflower, Commelina virginica), field bindweed (Convolvulus arvensis), morningglory (Ipomoea coccinea), nightshade (eastern black nightshade, Solanum ptycanthum), kochia (Kochia scoparia), nutsedge, yellow (yellow nutsedge, Cyperus esculentus), cocklebur (common cocklebur, Xanthium strumarium), smartweed (ladysthumb smartweed, Polygonum Persicaria) and beggarticks (hairy beggarticks, Bidens pilosa), were planted into a silt loam soil and treated preemergence with test chemicals formulated in a non-phytotoxic solvent mixture which included a surfactant. Treated plants and controls were maintained in a greenhouse for 21 days, after which time all species were compared to controls and visually evaluated. Plant response ratings, summarized in Table E, are based on a scale of 0 to 100 where 0 is no effect and 100 is complete control. A dash (-) response means no test result.
# [2] = system: wild poinsettia; assay type: in vivo, Euphorbia heterophylla
# How it was run: (§2)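 Visual injury rating, 0 (no effect) to 100 (complete control), versus controls at 21 days in greenhouse. Preemergence application to seeds planted in silt loam; compound formulated in non-phytotoxic solvent mix plus surfactant.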
# [3] = system: foxtail, green; assay type: in vivo, Setaria viridis
# How it was run: as §2
# [4] = system: crabgrass, large; assay type: in vivo, Digitaria sanguinalis
# Source text: as §1
# [5] = system: field bindweed; assay type: in vivo, Convolvulus arvensis
# Source text: as §1
# [6] = system: panicum, fall; assay type: in vivo, Panicum dichotomiflorum
# How it was run: as §2
# [7] = system: velvetleaf; assay type: in vivo, Abutilon theophrasti
# Source text: as §1
# [8] = system: morningglory; assay type: in vivo, Ipomoea coccinea
# How it was run: as §2
# [9] = system: kochia; assay type: in vivo, Kochia scoparia
# How it was run: as §2
smiles,measurement,setting,value
O=C1NCC(c2ccc(C(F)(F)F)cc2)C1C(=O)Nc1ccc(F)c(F)c1F (stereo not drawn) [Compound 232],"Plant response rating, Waterhemp",[1]; 31 g ai/ha,35
same,"Plant response rating, Waterhemp",[1]; 62 g ai/ha,80
same,"Plant response rating, Waterhemp",[1]; 125 g ai/ha,85
same,"Plant response rating, Waterhemp",[1]; 250 g ai/ha,95
same,"Plant response rating, Poinsettia, Wild",[2]; 31 g ai/ha,0
same,"Plant response rating, Poinsettia, Wild",[2]; 62 g ai/ha,0
same,"Plant response rating, Poinsettia, Wild",[2]; 125 g ai/ha,35
same,"Plant response rating, Poinsettia, Wild",[2]; 250 g ai/ha,40
same,"Plant response rating, Foxtail, Green",[3]; 31 g ai/ha,80
same,"Plant response rating, Foxtail, Green",[3]; 62 g ai/ha,95
same,"Plant response rating, Foxtail, Green",[3]; 125 g ai/ha,98
same,"Plant response rating, Foxtail, Green",[3]; 250 g ai/ha,98
same,"Plant response rating, Crabgrass, Large",[4]; 31 g ai/ha,95
same,"Plant response rating, Crabgrass, Large",[4]; 62 g ai/ha,98
same,"Plant response rating, Crabgrass, Large",[4]; 125 g ai/ha,98
same,"Plant response rating, Crabgrass, Large",[4]; 250 g ai/ha,98
same,"Plant response rating, Field Bindweed",[5]; 31 g ai/ha,0
same,"Plant response rating, Field Bindweed",[5]; 62 g ai/ha,0
same,"Plant response rating, Field Bindweed",[5]; 125 g ai/ha,40
same,"Plant response rating, Field Bindweed",[5]; 250 g ai/ha,40
same,"Plant response rating, Panicum, Fall",[6]; 31 g ai/ha,35
same,"Plant response rating, Panicum, Fall",[6]; 62 g ai/ha,50
same,"Plant response rating, Panicum, Fall",[6]; 125 g ai/ha,50
same,"Plant response rating, Panicum, Fall",[6]; 250 g ai/ha,60
same,"Plant response rating, Velvetleaf",[7]; 31 g ai/ha,0
same,"Plant response rating, Velvetleaf",[7]; 62 g ai/ha,0
same,"Plant response rating, Velvetleaf",[7]; 125 g ai/ha,20
same,"Plant response rating, Velvetleaf",[7]; 250 g ai/ha,80
same,"Plant response rating, Morningglory",[8]; 31 g ai/ha,0
same,"Plant response rating, Morningglory",[8]; 62 g ai/ha,0
same,"Plant response rating, Morningglory",[8]; 125 g ai/ha,0
same,"Plant response rating, Morningglory",[8]; 250 g ai/ha,35
same,"Plant response rating, Kochia",[9]; 31 g ai/ha,90
same,"Plant response rating, Kochia",[9]; 62 g ai/ha,95
same,"Plant response rating, Kochia",[9]; 125 g ai/ha,98
same,"Plant response rating, Kochia",[9]; 250 g ai/ha,98
O=C1NCC(c2ccc(F)cc2)C1C(=O)Nc1ccccc1F (racemic) [Compound 16],"Plant response rating, Waterhemp",[1]; 16 g ai/ha,0
same,"Plant response rating, Waterhemp",[1]; 31 g ai/ha,0
same,"Plant response rating, Waterhemp",[1]; 62 g ai/ha,0
same,"Plant response rating, Waterhemp",[1]; 125 g ai/ha,0
same,"Plant response rating, Waterhemp",[1]; 250 g ai/ha,0
same,"Plant response rating, Poinsettia, Wild",[2]; 16 g ai/ha,0
same,"Plant response rating, Poinsettia, Wild",[2]; 31 g ai/ha,0
same,"Plant response rating, Poinsettia, Wild",[2]; 62 g ai/ha,0
same,"Plant response rating, Poinsettia, Wild",[2]; 125 g ai/ha,0
same,"Plant response rating, Poinsettia, Wild",[2]; 250 g ai/ha,0
same,"Plant response rating, Foxtail, Green",[3]; 16 g ai/ha,0
same,"Plant response rating, Foxtail, Green",[3]; 31 g ai/ha,0
same,"Plant response rating, Foxtail, Green",[3]; 62 g ai/ha,10
same,"Plant response rating, Foxtail, Green",[3]; 125 g ai/ha,25
same,"Plant response rating, Foxtail, Green",[3]; 250 g ai/ha,95
same,"Plant response rating, Crabgrass, Large",[4]; 16 g ai/ha,10
same,"Plant response rating, Crabgrass, Large",[4]; 31 g ai/ha,20
same,"Plant response rating, Crabgrass, Large",[4]; 62 g ai/ha,30
same,"Plant response rating, Crabgrass, Large",[4]; 125 g ai/ha,75
same,"Plant response rating, Crabgrass, Large",[4]; 250 g ai/ha,98
same,"Plant response rating, Field Bindweed",[5]; 16 g ai/ha,0
same,"Plant response rating, Field Bindweed",[5]; 31 g ai/ha,0
same,"Plant response rating, Field Bindweed",[5]; 62 g ai/ha,0
same,"Plant response rating, Field Bindweed",[5]; 125 g ai/ha,0
same,"Plant response rating, Field Bindweed",[5]; 250 g ai/ha,0
same,"Plant response rating, Panicum, Fall",[6]; 16 g ai/ha,0
same,"Plant response rating, Panicum, Fall",[6]; 31 g ai/ha,0
same,"Plant response rating, Panicum, Fall",[6]; 62 g ai/ha,0
same,"Plant response rating, Panicum, Fall",[6]; 125 g ai/ha,0
same,"Plant response rating, Velvetleaf",[7]; 16 g ai/ha,0
same,"Plant response rating, Velvetleaf",[7]; 31 g ai/ha,0
same,"Plant response rating, Velvetleaf",[7]; 62 g ai/ha,0
same,"Plant response rating, Velvetleaf",[7]; 125 g ai/ha,0
same,"Plant response rating, Velvetleaf",[7]; 250 g ai/ha,0
same,"Plant response rating, Morningglory",[8]; 16 g ai/ha,0
same,"Plant response rating, Morningglory",[8]; 31 g ai/ha,0
same,"Plant response rating, Morningglory",[8]; 62 g ai/ha,0
same,"Plant response rating, Morningglory",[8]; 125 g ai/ha,0
same,"Plant response rating, Morningglory",[8]; 250 g ai/ha,0
same,"Plant response rating, Kochia",[9]; 31 g ai/ha,0
same,"Plant response rating, Kochia",[9]; 125 g ai/ha,0
same,"Plant response rating, Kochia",[9]; 250 g ai/ha,0
